Data published in US10087172B2, “Compounds and their methods of use” (AGIOS PHARMACEUTICALS, INC, priority 2012, dated 2018).

Target: T1, glutaminase (GAC) (Homo sapiens, UniProt O94925)
T1 sequence (O94925 55-598 isoform O94925-3 limits assumed): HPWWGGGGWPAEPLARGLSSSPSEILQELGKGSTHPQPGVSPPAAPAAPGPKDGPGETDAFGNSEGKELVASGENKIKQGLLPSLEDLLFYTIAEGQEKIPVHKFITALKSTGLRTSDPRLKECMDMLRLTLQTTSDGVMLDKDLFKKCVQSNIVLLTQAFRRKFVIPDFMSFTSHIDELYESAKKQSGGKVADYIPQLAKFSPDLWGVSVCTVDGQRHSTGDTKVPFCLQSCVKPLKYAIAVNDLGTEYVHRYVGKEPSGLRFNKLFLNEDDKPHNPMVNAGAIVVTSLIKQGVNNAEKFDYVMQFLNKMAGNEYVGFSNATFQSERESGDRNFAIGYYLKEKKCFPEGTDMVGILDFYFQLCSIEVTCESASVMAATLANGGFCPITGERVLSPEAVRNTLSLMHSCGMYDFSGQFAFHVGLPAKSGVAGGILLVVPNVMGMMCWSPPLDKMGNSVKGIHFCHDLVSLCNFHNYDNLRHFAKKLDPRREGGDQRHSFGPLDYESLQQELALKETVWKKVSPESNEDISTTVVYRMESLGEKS
Experiment: Glutaminase (GAC) coupled endpoint enzymatic assay (glutamate dehydrogenase/diaphorase/resazurin, Ex544/Em590)
Type: biochemical
Conditions: inhibition of glutaminase, tested in an assay of Example A or Example B; class symbols A-E
How it was run: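 Glutamate formed by GAC is coupled through GDH and diaphorase to resorufin fluorescence (Ex544/Em590), read after an SDS stop. Buffer pH 8.5 holds phosphate; glutamine is at Km, with 1.56 mM NAD in the enzyme mix. Compound and enzyme mix are preincubated 60 min at room temperature before substrate addition.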

| IC50 [nM] | SMILES |
| --- | --- |
| < 100 | CC(=O)N(C)c1ccc(CC(=O)Nc2nnc([C@H]3CCC[C@H](c4nnc(NC(=O)Cc5ccc(N(C)C(C)=O)cn5)s4)C3)s2)nc1 [Compound 368] |
| < 100 | O=C(Cc1cccc(N2CC(F)(F)C2)n1)Nc1nnc([C@H]2CCC[C@H](c3nnc(NC(=O)[C@H](O)c4ccccc4)s3)C2)s1 [Compound 369] |
| < 100 | O=C(Nc1nnc([C@H]2CCC[C@H](c3nnc(NC(=O)[C@H](O)c4ccccc4)s3)C2)s1)[C@H](O)c1ccccc1 [Compound 370, (2R,2′R)—N,N′-(5,5′-((1S,3S)-cyclohexane-1,3-diyl)bis(1,3,4-thiadiazole-5,2-diyl))bis(2-hydroxy-2-phenylacetamide)] |
| < 100 | O=C(Nc1nnc([C@H]2CCC[C@H](c3nnc(NC(=O)[C@@H](O)c4ccccc4)s3)C2)s1)[C@@H](O)c1ccccc1 [Compound 371, (2R,2′S)—N,N′-(5,5′-((1S,3S)-cyclohexane-1,3-diyl)bis(1,3,4-thiadiazole-5,2-diyl))bis(2-hydroxy-2-phenylacetamide)] |
| < 100 | O=C(Cc1cccc(OC(F)(F)F)c1)Nc1nnc([C@H]2CCC[C@H](c3nnc(NC(=O)[C@@H](O)c4ccccc4)s3)C2)s1 [Compound 372, (S)-2-hydroxy-2-phenyl-N-(5-((1S,3S)-3-(5-(2-(3-(trifluoromethoxy)phenyl)acetamido)-1,3,4-thiadiazol-2-yl)cyclohexyl)-1,3,4-thiadiazol-2-yl)acetamide] |
| < 100 | O=C(Cc1cccc(OC(F)(F)F)c1)Nc1nnc([C@H]2CC[C@H](c3nnc(NC(=O)Cc4cccc(N5CC(F)(F)C5)n4)s3)C2)s1 [Compound 373] |
| < 100 | O=C(Cc1cccc(OC(F)(F)F)c1)Nc1nnc([C@H]2CC[C@H](c3nnc(NC(=O)[C@@H](O)c4ccccc4)s3)C2)s1 [Compound 374, (S)-2-hydroxy-2-phenyl-N-(5-((1S,3S)-3-(5-(2-(3-(trifluoromethoxy)phenyl)acetamido)-1,3,4-thiadiazol-2-yl)cyclopentyl)-1,3,4-thiadiazol-2-yl)acetamide] |
| < 100 | N#Cc1cccc(CC(=O)Nc2nnc([C@H]3CCC[C@H](c4nnc(NC(=O)Cc5cccc(OC(F)(F)F)c5)s4)C3)s2)n1 [Compound 375, 2-(6-cyanopyridin-2-yl)-N-(5-((1S,3S)-3-(5-(2-(3-(trifluoromethoxy)phenyl)acetamido)-1,3,4-thiadiazol-2-yl)cyclohexyl)-1,3,4-thiadiazol-2-yl)acetamide] |
| < 100 | O=C(Cc1ccccn1)Nc1nnc([C@H]2CCC[C@H](c3nnc(NC(=O)[C@@H](O)c4ccccc4)s3)C2)s1 [Compound 376, (S)-2-hydroxy-2-phenyl-N-(5-((1S,3S)-3-(5-(2-(pyridin-2-yl)acetamido)-1,3,4-thiadiazol-2-yl)cyclohexyl)-1,3,4-thiadiazol-2-yl)acetamide] |
| < 100 | O=C(Cc1cccc(N2CC(F)(F)C2)n1)Nc1nnc([C@H]2CC[C@H](c3nnc(NC(=O)[C@@H](O)c4ccccc4)s3)C2)s1 [Compound 377, (S)—N-(5-((1S,3S)-3-(5-(2-(6-(3,3-difluoroazetidin-1-yl)pyridin-2-yl)acetamido)-1,3,4-thiadiazol-2-yl)cyclopentyl)-1,3,4-thiadiazol-2-yl)-2-hydroxy-2-phenylacetamide] |
| < 100 | O=C(Cc1cccc(N2CC(F)(F)C2)n1)Nc1nnc([C@H]2CC[C@H](c3nnc(NC(=O)[C@H](O)c4ccccc4)s3)C2)s1 [Compound 378, (R)—N-(5-((1S,3S)-3-(5-(2-(6-(3,3-difluoroazetidin-1-yl)pyridin-2-yl)acetamido)-1,3,4-thiadiazol-2-yl)cyclopentyl)-1,3,4-thiadiazol-2-yl)-2-hydroxy-2-phenylacetamide] |
| < 100 | O=C(Nc1nnc([C@H]2CC[C@H](c3nnc(NC(=O)[C@@H](O)c4ccccc4)s3)C2)s1)[C@@H](O)c1ccccc1 [Compound 379] |
| < 100 | O=C(Nc1nnc([C@H]2CCC[C@H](c3nnc(NC(=O)C(CO)c4ccccc4)s3)C2)s1)C(CO)c1ccccc1 (stereo partly drawn) [Compound 380, N,N′-(5,5′-((1S,3S)-cyclohexane-1,3-diyl)bis(1,3,4-thiadiazole-5,2-diyl))bis(3-hydroxy-2-phenylpropanamide)] |
| < 100 | O=C(Cc1cccc(OC(F)(F)F)c1)Nc1nnc([C@H]2CCC[C@H](c3nnc(NC(=O)C(CO)c4ccccc4)s3)C2)s1 (stereo partly shown) [Compound 381] |
| < 100 | O=C(Nc1nnc([C@H]2CC[C@H](c3nnc(NC(=O)[C@H](O)c4ccccc4)s3)C2)s1)[C@H](O)c1ccccc1 [Compound 382] |
| < 100 | CC(=O)N(C)c1cccc(CC(=O)Nc2nnc([C@H]3CCC[C@H](c4nnc(NC(=O)Cc5cccc(N(C)C(C)=O)n5)s4)C3)s2)n1 [Compound 385, N,N′-(5,5′-((1S,3S)-cyclohexane-1,3-diyl)bis(1,3,4-thiadiazole-5,2-diyl))bis(2-(6-(N-methylacetamido)pyridin-2-yl)acetamide)] |
| < 100 | O=C(Cc1cccc(N2CC(F)(F)C2)n1)Nc1nnc([C@H]2CCC[C@H](c3nnc(NC(=O)[C@@H](O)c4ccccc4)s3)C2)s1 [Compound 387, (S)—N-(5-((1S,3S)-3-(5-(2-(6-(3,3-difluoroazetidin-1-yl)pyridin-2-yl)acetamido)-1,3,4-thiadiazol-2-yl)cyclohexyl)-1,3,4-thiadiazol-2-yl)-2-hydroxy-2-phenylacetamide] |
| < 100 | O=C(Cc1cccc(OC(F)(F)F)c1)Nc1nnc([C@H]2CCC[C@H](c3nnc(NC(=O)Cc4cccc(N5CC(F)(F)C5)n4)s3)C2)s1 [Compound 388, 2-(6-(3,3-difluoroazetidin-1-yl)pyridin-2-yl)-N-(5-((1S,3S)-3-(5-(2-(3-(trifluoromethoxy)phenyl)acetamido)-1,3,4-thiadiazol-2-yl)cyclohexyl)-1,3,4-thiadiazol-2-yl)acetamide] |
| < 100 | O=C(Cc1cccc(OC(F)(F)F)c1)Nc1nnc([C@H]2CCC[C@H](c3nnc(NC(=O)C(CO)c4ccccc4)s3)C2)s1 (stereo partly drawn) [Compound 389, 3-hydroxy-2-phenyl-N-(5-((1S,3S)-3-(5-(2-(3-(trifluoromethoxy)phenyl)acetamido)-1,3,4-thiadiazol-2-yl)cyclohexyl)-1,3,4-thiadiazol-2-yl)propanamide] |
